{
  "source": "patent US20200022967A1",
  "about": "“Use of 2-carboxamide cycloamino urea derivatives in the treatment of EGFR dependent diseases or diseases that have acquired resistance to agents that target EGFR family members” (Novartis AG, priority 2010, published 2020)",
  "key": {"HBCx-5 xenograft tumor": {"tested_on": "HBCx-5 xenograft tumor", "assay": "HBCx-5 breast cancer xenograft, antitumor activity (Example 5)", "format": "in vivo, mice", "conditions": "capecitabine 40 mg/kg single agent p.o., five times per week, two cycles; p<0.001", "protocol": "Compound A was suspended at mg/ml in 0.5% methylcellulose (Sigma Aldrich, St. Louis, Mo.). It was homogenized by stirring vortexing and sonication. The suspension was stored at 4° C. for 7 days protected from light. […] Stock solution at 21 mg/ml was diluted just before administration at 1 mg/ml with sterile water for injection. Capecitabine (Xeloda®, Roche) at […] was kept at 4° C. protected from light. Capecitabine pellets were crushed and suspended in NaCl 0.9%.\nDose was body weight adjusted at each injection.\nCapecitabine was administered by oral gavage (p.o.) at […], five times per week for two weeks (i.e., five consecutive dosing days/week). After a one week rest, a second treatment cycle was performed."}, "[1]": {"assay": "Body weight loss in HBCx-5 xenograft study (Example 5)", "conditions": "capecitabine single agent; significant and transient", "quoted_text": "Experiments were performed in female HSD: athymic nude-Foxn1nu mice approximately 8-10 weeks of age and weighing approximately 19-25 grams. The mice were allowed to acclimate with access to food and water ad libitum for 6 days prior to the study. When body weight loss reaches 15% compared to the first day of treatment, DietGel® was provided to the animals.\nThe mice were divided into five groups each comprising ten mice. Treatments were initiated 34 days post-implantation of the HBCx-5 xenograft tumor. […] For xenograft implantation, the mice were anesthetized with 100 mg/kg ketamine hydrochloride and 10 mg/kg xylazine. Using asceptic technique, the mice were grafted in interscapular with 3 mm on 3 mm tumor fragment. […] Tumors were measured with calipers three times per week at the start of dosing. Tumors were calculated using the formula: =width^2×length/2. Tumor size and body weight were measured three times per week during the treatment period. The planned endpoints for the experiment were a treatment phase of six weeks and no follow-up phase.\nAntitumor activity is expressed as T/C % (mean change of tumor volume of treated animals/mean change of tumor volume of control animals)×100. Tumor volume and relative body weight were used for statistical analysis. Group comparisons were performed using a Mann Whitney non parametric test between treated group and control group."}, "NCI-N87 tumors": {"tested_on": "NCI-N87 tumors", "assay": "NCI-N87 xenograft in CB17 SCID mice, Compound A alone and with lapatinib (Example 6)", "format": "in vivo", "conditions": "for Median TTE: control 26.2, vs G1 ***; for Mean Tumor Volume (no. animals, n) Day 59: n=1", "protocol": "The NCI-N87 cells were harvested with 5× trypsin. Eight days after tumor implantation (on Day 1 of the study), mice with an individual tumor volume of 88-196 mm^3 were sorted into 10 groups of ten mice with a group mean tumor volume of 143-149 mm^3.\nWhere applicable, data is presented as mean±SEM. Each animal was euthanized when its neoplasm reached the endpoint volume (1000 mm^3), or on the last day of the study (Day 59). Time to endpoint (TTE) is calculated by the equation: TTE=(log10(endpoint volume)−b)/m, where TTE is expressed in days, endpoint volume is in mm3, b is the intercept and m is the slope of the line obtained by linear regression of a log-transformed tumor growth data set. Treatment efficacy was determined from Tumor Growth Delay (TGD), which was defined as the increase in the median time to endpoint (TTE) for a treatment group compared to the control group (TGD=T−C), expressed in days, or as a percentage of the median TTE of the control group (% TGD=((T−C)/C)×100), wherein T=median TTE for a treatment group and C=median TTE for the designated control group.\nStatistical and graphical analyses was performed with Prism 3.03 (GraphPad) for Windows. For all tests, the level of significance of differences was done using ANOVA, with Bartlett's test; and a post-hoc Dunnett's multiple comparison test compared the mean change for each drub-treated group to the mean for Group 1. Survival was analyzed by the Kaplan-Meier method. The logrank test was employed to analyze the significance of the difference between the overall survival experiences of two groups, based on time to endpoint (TTE) values. The two-tailed statistical analyses were conducted at P=0.05. Prism summarizes test results as not significant (ns) at P>0.05, significant (symbolized by “*”) at 0.01<P<0.05, very significant (symbolized by “**”) at 0.001<P<0.01, and extremely significant (symbolized by “***”) at P<0.001."}, "[2]": {"assay": "Body weight nadir and deaths in NCI-N87 lapatinib study (Example 6)", "quoted_text": "Treatments started eight days post tumor cell implantation and lasted for 59 consecutive days or until tumor volume=1000 mm^3. […] For the b.i.d. dosing schedule, the first dose was given p.m. on Day 1 and last dose a.m. on Day 22. […] Body weights were recorded on Days 1-5, on each treatment day (except weekends), and twice weekly thereafter until end of the study."}, "[3]": {"conditions": "Group 4 (10 animals): lapatinib 50 mg/kg p.o. b.i.d."}, "[4]": {"conditions": "Group 4: lapatinib 50 mg/kg p.o. b.i.d."}, "[5]": {"conditions": "Group 5 (10 animals): lapatinib 100 mg/kg p.o. once daily"}, "[6]": {"conditions": "Group 5: lapatinib 100 mg/kg p.o. once daily"}, "[7]": {"conditions": "Group 6 (9 animals): lapatinib 150 mg/kg p.o. once daily"}, "[8]": {"conditions": "Group 6: lapatinib 150 mg/kg p.o. once daily"}},
  "data": [
    {"molecule": "CCCCCOC(=O)Nc1nc(=O)n([C@@H]2O[C@H](C)[C@@H](O)[C@H]2O)cc1F", "note": "[Capecitabine, reference compound]", "values": [
      {"measurement": "T/C", "setting": "HBCx-5 xenograft tumor", "result": 9.03, "unit": "%"},
      {"measurement": "body weight loss", "setting": "[1]", "result": 9.1, "unit": "%"}
    ]},
    {"molecule": "CS(=O)(=O)CCNCc1ccc(-c2ccc3ncnc(Nc4ccc(OCc5cccc(F)c5)c(Cl)c4)c3c2)o1", "note": "[lapatinib]", "values": [
      {"measurement": "Regressions CR", "setting": "NCI-N87 tumors; [3]", "result": "CR: 0"},
      {"measurement": "Regressions PR", "setting": "NCI-N87 tumors; [3]", "result": "PR: 0,"},
      {"measurement": "Median TTE", "setting": "NCI-N87 tumors; Group 4 (10 animals): lapatinib 50 mg/kg p.o. b.i.d. for 21 days", "result": 47.7, "unit": "days"},
      {"measurement": "% TGD", "setting": "NCI-N87 tumors; [4]", "result": 66, "unit": "%"},
      {"measurement": "Mean Tumor Volume (no. animals, n) Day 59", "setting": "NCI-N87 tumors; [4]", "result": "608 (1)"},
      {"measurement": "Regressions CR", "setting": "NCI-N87 tumors; [5]", "result": "CR: 0"},
      {"measurement": "Regressions PR", "setting": "NCI-N87 tumors; [5]", "result": "PR: 0,"},
      {"measurement": "% TGD", "setting": "NCI-N87 tumors; [6]", "result": 82, "unit": "%"},
      {"measurement": "T-C", "setting": "NCI-N87 tumors; [6]", "result": 16.4, "unit": "days"},
      {"measurement": "Mean Tumor Volume (no. animals, n) Day 59", "setting": "NCI-N87 tumors; [6]", "result": "750 (1)"},
      {"measurement": "Regressions CR", "setting": "NCI-N87 tumors; [7]", "result": "CR: 0"},
      {"measurement": "Regressions PR", "setting": "NCI-N87 tumors; [7]", "result": "PR: 1,"},
      {"measurement": "Median TTE", "setting": "NCI-N87 tumors; Group 6 (9 animals): lapatinib 150 mg/kg p.o. once daily for 21 days", "result": 50.6, "unit": "days"},
      {"measurement": "% TGD", "setting": "NCI-N87 tumors; [8]", "result": 63, "unit": "%"},
      {"measurement": "T-C", "setting": "NCI-N87 tumors; [8]", "result": 24.4, "unit": "days"},
      {"measurement": "Deaths (TR/NTR)", "setting": "[2]; [3]", "result": 0},
      {"measurement": "Deaths (TR/NTR)", "setting": "[2]; [5]", "result": 0},
      {"measurement": "Deaths NTR = non-treatment related", "setting": "[2]; [8]", "result": "NTR: 1"},
      {"measurement": "Deaths TR = treatment-related", "setting": "[2]; [8]", "result": "TR: 0"}
    ]}
  ]
}
